# According to ChEMBL document CHEMBL5052853, “Isoxazole derivatives targeting tacc3 as anticancer agents” (2021):
# Calls of active or inactive are those of the source. The calls are words filed in the database; no cut-off is given here.
# Experiments:
# JIMT-1 [1] = experiment: Antiproliferative activity against human JIMT-1 cells after 72 hrs by SRB assay; format: functional, cell-based; details: JIMT-1, 72 h
# JIMT-1 [2] = experiment: Stabilization of human TACC3 expressed in JIMT-1 cells at 1 uM incubated for 6 hrs by cellular thermal shift assay; format: cell-based
# [3] = Binding affinity to purified recombinant human TACC3 by isothermal titration calorimetry
# JIMT-1 [4] = experiment: Stabilization of human TACC3 expressed in JIMT-1 cells at 10 uM incubated for 20 mins and measured in presence of pronase by drug affinity responsive target stability assay; format: cell-based
# JIMT-1 [5] = experiment: Inhibition of colony formation in human JIMT-1 cells at 0.1 to 1 uM assessed as decrease in colony number incubated for 12 days by crystal violet staining based assay; format: functional, cell-based; details: dose 0.1-1 µM, time 12.0 day
# JIMT-1 [6] = experiment: Induction of mitotic arrest in human JIMT-1 cells assessed as change in p-histone H3 levels and measured by Western blot analysis; format: functional, cell-based; details: dose 0.1-5 µM
# JIMT-1 [7] = experiment: Induction of apoptosis in human JIMT-1 cells assessed as change in cleaved caspase-3 levels and measured by Western blot analysis; format: functional, cell-based; details: dose 0.1-5 µM
# JIMT-1 [8] = experiment: Induction of apoptosis in human JIMT-1 cells assessed as change in cleaved PARP levels and measured by Western blot analysis; format: functional, cell-based; details: dose 0.1-5 µM
# JIMT-1 [9] = experiment: Induction of DNA damage in human JIMT-1 cells assessed as change in p-H2AX levels and measured by Western blot analysis; format: functional, cell-based; details: dose 0.1-5 µM
# JIMT-1 [10] = experiment: Induction of apoptosis in human JIMT-1 cells assessed as increase in apoptotic cells at 500 nM measured by Annexin-V and PI staining method (reference value: 4.1 +/- 0.3 %); format: functional
# JIMT-1 [11] = experiment: Induction of mitotic arrest in human JIMT-1 cells assessed as increase in aberrant spindle formation at 200 to 500 nM measured by DAPI staining method; format: functional, cell-based; details: dose 200-500 nM
# JIMT-1 [12] = experiment: Induction of mitotic arrest in human JIMT-1 cells assessed as increase in multipolar spindles formation at 200 to 500 nM; format: functional, cell-based; details: dose 200-500 nM
# JIMT-1 [13] = experiment: Induction of mitotic arrest in human JIMT-1 cells assessed as increased localization of spindle assembly checkpoint marker BuBR1 to chromosomes at 500 nM measured by immunofluorescence staining method; format: functional, cell-based
# JIMT-1 [14] = experiment: Induction of mitotic arrest in human JIMT-1 cells at 200 nM assessed as change in p-histone H3 levels in presence of Mps1 inhibitor TC Mps1 and measured by Western blot analysis; format: functional, cell-based
# JIMT-1 [15] = experiment: Induction of apoptosis in human JIMT-1 cells at 200 nM assessed as change in cleaved PARP levels in presence of Mps1 inhibitor TC Mps1 and measured by Western blot analysis; format: functional, cell-based
# JIMT-1 [16] = experiment: Induction of DNA damage in human JIMT-1 cells at 200 nM assessed as change in p-H2AX levels in presence of Mps1 inhibitor TC Mps1 and measured by Western blot analysis; format: functional, cell-based
# RT-112 [17] = experiment: Antiproliferative activity against human RT-112 cells after 3 days by SRB assay; format: functional, cell-based; details: RT-112, 72 h
# RT-4 = experiment: Antiproliferative activity against human RT-4 cells after 3 days by SRB assay; format: functional, cell-based; details: RT-4, 72 h
# RT-112 [18] = experiment: Induction of mitotic arrest in human RT-112 cells assessed as decrease in ERK1/2 phosphorylation at 5 uM measured by western blot analysis; format: functional, cell-based
# MCF-12A = experiment: Antiproliferative activity against human MCF-12A cells; format: functional, cell-based
# MDA-MB-231 = experiment: Antiproliferative activity against human MDA-MB-231 cells; format: functional, cell-based
# CAL-51 = experiment: Antiproliferative activity against human CAL-51 cells; format: functional, cell-based
# HCC1143 = experiment: Antiproliferative activity against human HCC1143 cells; format: functional, cell-based
# HCC1954 = experiment: Antiproliferative activity against human HCC1954 cells; format: functional, cell-based
# JIMT-1 [19] = experiment: Antitumor activity in human JIMT-1 cells xenografted female immunodeficient nude mouse at 5 mg/kg, po administered every other day for 30 days; format: functional, organism-based; details: time 30.0 day
# [20] = Toxicity in human JIMT-1 cells xenografted female immunodeficient nude mouse assessed as effect on body weight at 5 mg/kg, po administered every other day for 30 days; format: organism-based; details: in vivo, 720 h, time 30 day
# JIMT-1 [21] = experiment: Antitumor activity in human JIMT-1 cells xenografted female nude mouse at 2 mg/kg, po administered every other day; format: functional, organism-based
# JIMT-1 [22] = experiment: Antitumor activity in human JIMT-1 cells xenografted female nude mouse at 2 mg/kg, iv administered once every 2 weeks; format: functional, organism-based
# JIMT-1 [23] = experiment: Antitumor activity in human JIMT-1 cells xenografted female nude mouse at 5 mg/kg, po administered every other day; format: functional, organism-based
# [24] = Toxicity in human JIMT-1 cells xenografted female nude mouse assessed as effect on body weight at 2 mg/kg, po administered every other day; format: organism-based; details: in vivo
# [25] = Toxicity in human JIMT-1 cells xenografted female nude mouse assessed as effect on body weight at 2 mg/kg, iv administered once every 2 weeks; format: organism-based; details: in vivo, 336 h
# [26] = Toxicity in human JIMT-1 cells xenografted female nude mouse assessed as effect on body weight at 5 mg/kg, po administered every other day; format: organism-based; details: in vivo
# JIMT-1 [27] = experiment: Antitumor activity in human JIMT-1 cells xenografted female nude mouse at 25 mg/kg, po administered for 23 days; format: functional, organism-based; details: time 23.0 day
# [28] = Toxicity in human JIMT-1 cells xenografted female nude mouse assessed as effect on body weight at 25 mg/kg, po administered for 23 days; format: organism-based; details: in vivo, 552 h, time 23 day
# EMT6 = experiment: Antitumor activity in mouse EMT6 xenografted cells syngeneic Balb/c mouse
# [29] = Toxicity in mouse EMT6 cells xenografted syngeneic Balb/c mouse assessed as animal survival rate measured by Kaplan-Meier plot analysis; details: in vivo
# [30] = Toxicity in mouse EMt6 cells xenografted syngeneic Balb/c mouse assessed as effect on body weight; details: in vivo
# HCT-116 = experiment: Antitumor activity in human HCT-116 cells xenografted immunocompromised female nude mouse at 25 to 50 mg/kg, po administered daily; format: functional, organism-based; details: dose 25-50 mg/kg
# [31] = Toxicity in human HCT-116 cells xenografted immunocompromised female nude mouse assessed as effect on body weight at 25 to 50 mg/kg, po administered daily; format: organism-based; details: in vivo, dose 25-50 mg/kg
# CT26 = experiment: Antitumor activity in mouse CT26 cells xenografted syngeneic immunocompetent Balb/c mouse at 25 to 50 mg/kg, po administered daily; format: functional, organism-based; details: dose 25-50 mg/kg
# [32] = Toxicity in mouse CT26 cells xenografted syngeneic immunocompetent Balb/c mouse assessed as effect on body weight at 25 to 50 mg/kg, po administered daily; format: organism-based; details: in vivo, dose 25-50 mg/kg
# 4T1 = experiment: Antitumor activity in mouse 4T1-Luc cells xenografted immunocompetent female mouse assessed as impairment of metastatic growth at 50 mg/kg, po administered every day; format: functional, organism-based
# [33] = Toxicity in mouse 4T1-Luc cells xenografted immunocompetent female mouse assessed as animal survival at 50 mg/kg, po administered every day; format: organism-based; details: in vivo
# [34] = Toxicity in female nude mouse assessed as body weight at 100 mg/kg, po after 1 day of administration; format: organism-based; details: in vivo, 24 h
# [35] = Toxicity in female nude mouse assessed as body weight at 100 mg/kg, po after 2 days of administration; format: organism-based; details: in vivo, 48 h, time 2 day
# [36] = Toxicity in female nude mouse assessed as body weight at 100 mg/kg, po after 3 days of administration; format: organism-based; details: in vivo, 72 h, time 3 day
# [37] = Toxicity in female nude mouse assessed as body weight at 100 mg/kg, po after 4 days of administration; format: organism-based; details: in vivo, 96 h, time 4 day
# [38] = Toxicity in female nude mouse assessed as body weight at 100 mg/kg, po after 5 days of administration; format: organism-based; details: in vivo, 120 h, time 5 day
# [39] = Toxicity in female nude mouse assessed as body weight at 100 mg/kg, po after 6 days of administration; format: organism-based; details: in vivo, 144 h, time 6 day
# [40] = Toxicity in female nude mouse assessed as body weight at 100 mg/kg, po after 7 days of administration; format: organism-based; details: in vivo, 168 h, time 7 day
# [41] = Toxicity in female nude mouse assessed as body weight at 500 mg/kg, po administered once and measured after 1 day of administration; format: organism-based; details: in vivo, 24 h
# [42] = Toxicity in female nude mouse assessed as body weight at 500 mg/kg, po administered once and measured after 2 days of administration; format: organism-based; details: in vivo, 48 h, time 2 day
# [43] = Toxicity in female nude mouse assessed as body weight at 500 mg/kg, po administered once and measured after 3 days of administration; format: organism-based; details: in vivo, 72 h, time 3 day
# [44] = Toxicity in female nude mouse assessed as organ toxicity at 500 mg/kg, po administered once for 1 to 3 days; format: organism-based; details: in vivo, time 1-3 day
# [45] = Kinetic solubility in sodium phosphate buffer at pH 7.4 at 25 degree C after 2 hrs; format: physicochemical; details: read-out: Kinetic_solubility
# [46] = Plasma protein binding in human assessed as unbound fraction; format: ADME, cell-free
smiles,measurement,setting,value
COc1ccc(-c2cc(Nc3ccnc(N4CCOCC4)n3)on2)cc1,IC50,JIMT-1 [1],120 nM
same,Activity,JIMT-1 [2],Active
same,Kd,[3],1.5 nM
same,Activity,JIMT-1 [4],Active
same,Activity,JIMT-1 [5],Active
same,Activity,JIMT-1 [6],Dose-Dependent Effect
same,Activity,JIMT-1 [7],Dose-Dependent Effect
same,Activity,JIMT-1 [8],Dose-Dependent Effect
same,Activity,JIMT-1 [9],Dose-Dependent Effect
same,Activity,JIMT-1 [10],45.6%
same,Activity,JIMT-1 [11],Active
same,Activity,JIMT-1 [12],Active
same,Activity,JIMT-1 [13],Active
same,Activity,JIMT-1 [14],Active
same,Activity,JIMT-1 [15],Active
same,Activity,JIMT-1 [16],Active
same,IC50,RT-112 [17],300 nM
same,IC50,RT-4,3660 nM
same,Activity,RT-112 [18],Active
same,IC50,MCF-12A,> 10000 nM
same,Activity,MDA-MB-231,Active
same,Activity,CAL-51,Active
same,Activity,HCC1143,Active
same,Activity,HCC1954,Active
same,Activity,JIMT-1 [19],Active
same,Activity,[20],Non-Toxic
same,Activity,JIMT-1 [21],Active
same,Activity,JIMT-1 [22],Active
same,Activity,JIMT-1 [23],Active
same,Activity,[24],Non-Toxic
same,Activity,[25],Non-Toxic
same,Activity,[26],Non-Toxic
same,Activity,JIMT-1 [27],Active
same,Activity,[28],Non-Toxic
same,Activity,EMT6,Active
same,MSD,[29],22 days
same,Activity,[30],Non-Toxic
same,Activity,HCT-116,Active
same,Activity,[31],Non-Toxic
same,Activity,CT26,Active
same,Activity,[32],Non-Toxic
same,Activity,4T1,Active
same,MSD,[33],28 days
same,Activity,[34],17.4 g
same,Activity,[35],16.2 g
same,Activity,[36],16.3 g
same,Activity,[37],17 g
same,Activity,[38],16.5 g
same,Activity,[39],16.7 g
same,Activity,[40],16.8 g
same,Activity,[41],21.1 g
same,Activity,[42],20.9 g
same,Activity,[43],21.5 g
same,Activity,[44],Non-Toxic
same,solubility kinetic at 2 h,[45],< 1 µM
same,Activity,[46],1.13%
